Measured values taken from article PMC10499737 (Inflammation Research, 2023).
Where two headings read alike, the source gives them in different places.

Columns and labels:
[1] = parameters: method as in PMID 28800383; conditions: Phase 1 study; cited from earlier work
[2] = tested on: NE activity in mouse BALF neutrophils; assay: In vivo LPS-challenge model: NE activity in BALF neutrophil lysate; conditions: 11-day dosing
Procedure: In the first—a 2-day treatment holiday regimen—mice were treated with 0.005, 0.05, 0.5 or 5 mg/kg BI 1291583, or vehicle, twice daily by oral gavage on Days 1‒5, 8 and 9. On Day 10, a final dose of BI 1291583 or vehicle was given followed by challenge with nebulised E. coli lipopolysaccharide (LPS) to induce neutrophil influx into the lungs. In the second dosing regimen, mice were treated with 0.00005, 0.0001, 0.001, 0.01, 0.03, 0.1, 0.5 or 5 mg/kg BI 1291583, or vehicle, once daily by oral gavage for 11 consecutive days. On Day 12, a final dose of BI 1291583 or vehicle was given followed by LPS challenge.
Four and a half hours after LPS challenge, lung neutrophils were harvested by lavage via tracheal cannula, and neutrophil count measured. Bronchoalveolar lavage fluid (BALF) samples were then centrifuged and cell pellets lysed with volume of lysis buffer normalised to neutrophil count. NE, CatG and PR3 activity were determined by conversion of a fluorescent substrate measured over time with a SpectramaxM5 fluorescence reader at 360 nm excitation wavelength and 460 nm emission wavelength. Fluorescence values were normalised to neutrophil count, and mean NE, CatG and PR3 activity from BI 1291583-treated animals was calculated relative to the mean of LPS/vehicle-treated control animals. CatG and PR3 activity was measured in pooled samples from each dose group. For the 11-day dosing experiments, the dose of BI 1291583 that inhibited 50% of NE activity (ED50) was calculated using GraphPad Prism software (version 9.5.0 for Windows, GraphPad Software, www.graphpad.com) with a non-linear regression curve fit. […] A one-way analysis of variance with Dunnett’s multiple comparisons test analysis was performed to determine statistical significance.
The inhibitory activity of INS1007 on the production of active NE, and distribution of INS1007 to bone marrow and plasma was investigated under the same conditions as the 11-day dosing regimen (see Methods, Additional File 1).
(§1) The animals were treated with BI 1291583 (0.005, 0.05, 0.5 and 5 mg/kg) or vehicle twice daily on Days 1‒5, 8 and 9. BI 1291583 or vehicle was applied orally by gavage (10 ml/kg body weight). On Day 10, animals were treated with BI 1291583 or vehicle followed by an LPS inhalation challenge.
as §1, with “(0.00005, 0.0001, 0.001, 0.01, 0.03, 0.1, 0.5,” for “(0.005, 0.05, 0.5 and”, “once” for “twice”, “for 11 consecutive days.” for “on Days 1‒5, 8 and 9.”, “12,” for “10,”
To induce neutrophil influx into the lungs, animals were challenged with an LPS inhalation at Day 12 of this study. LPS from E.coli (serotype 055:B5) was used (SigmaAldrich #L2880). […]
The trachea was cannulated and a lavage was performed using 2x1 ml lavage buffer (HBSS [HyClone, # Sh30588,01] with 10 U/ml heparin). Cell count in the lavage fluid and cell differentiation were determined using a haemocytometer (Sysmex XT-200i), following the supplier’s instructions.
For enzymatic NE measurement, the lavage cells were separated from two 500 µl aliquots of lavage fluid by centrifugation (1500rpm, 4°C, 15min), the supernatants were removed and the pellets were stored at -80°C for further analyses. For enzymatic proteinase 3 (PR3) and Cat G measurement, the remaining lavage samples from all animals of each dose group were pooled and cell count and cell differentiation were determined as described above. […]

[3] = tested on: production of active NE in U937 cells; assay: Inhibition of the production of active NE in a neutrophil progenitor cell line; type: cell-based; conditions: Homo sapiens, U-937, 48 h incubation
From the text: The inhibitory activity of BI 1291583 on the production of active NE was investigated in duplicate experiments in the human myeloid cell line U937. U937 cells were used as they constitutively express and process NE. Additionally, a myeloid cell line was used rather than primary neutrophils as CatC activates NSPs in the bone marrow during myelopoiesis and no further activation occurs once the neutrophils have entered the bloodstream; as such, the effect of CatC inhibition cannot be investigated in primary neutrophils. BI 1291583 was added to cell suspensions at a final concentration of 0.064, 0.32, 1.6, 8, 40, 200 and 1000 nM. Cells were then incubated for 48 h. Cell viability was then measured in duplicate experiments using the CellTiter-Glo® Luminescent Cell Viability Assay according to manufacturer’s instructions. For measurement of NE activity, cells were separated by centrifugation, lysed and debris removed. NE activity was measured by conversion of a fluorescent substrate. Increase in fluorescence was measured over time with a SpectramaxM5 fluorescence reader at 360 nm excitation wavelength and 460 nm emission wavelength. The reaction rate when CatC is fully saturated by BI 1291583 was used as primary readout to calculate NE activity. Percentage inhibition of NE activity in lysates treated with BI 1291583 was calculated relative to the mean of the vehicle-only control. […]

[4] = Bone marrow and plasma exposure after repeated oral dosing (LC-MS/MS); type: in vivo; conditions: Crl:NMRI, mouse, 11-day dosing; for Kp at 5 h: bone marrow/plasma, 5 h after final dose, read-out: bone marrow-to-plasma exposure ratio
Procedure: At 5 h after final BI 1291583 administration, animals were euthanised by Narcoren application (400–600 mg/kg intraperitoneally). For assessment of BI 1291583 exposure in plasma, five drops of retrobulbar blood were taken. The femur was prepared by extraction, shock frozen in liquid nitrogen and stored at − 20 °C until bone marrow preparation. For preparation of bone marrow, epiphysis severed off and bone marrow extracted from the diaphysis. Exposure was measured via liquid chromatography–tandem mass spectrometry. […]

[5] = tested on: patients with bronchiectasis; conditions: 10 mg or 25 mg once daily, 24 weeks; cited from earlier work
healthy volunteers = tested on: healthy volunteers; parameters: method as in PMID 29484635; conditions: once daily up to 40 mg for up to 28 days; cited from earlier work

**Q.** With `CC[C@@H](/C=C/C(=O)N1CCc2ccccc21)NC(=O)C1(N)CCOCC1` [GSK2793660] as the molecule, how does the “inhibition of downstream NSPs” value [1] read?
**A.** The value was “insufficient inhibition of downstream NSPs”.

**Q.** What about the skin events [1] of the same molecule?
**A.** The skin events was “marked skin desquamation events”.

**Q.** For `Cn1c(=O)oc2ccc(-c3ccc(C[C@@H](C#N)NC(=O)[C@@H]4CNCCCO4)cc3)cc21` [INS1007], which “inhibition of production of active NE compared with vehicle/LPS control” value ([2]; 0.1 mg/kg once daily oral) is on record?
**A.** Its value is “no inhibition”.

**Q.** And the inhibition at 30 mg/kg ([2]; Mus musculus, Neutrophil, 264 h, at 30 mg/kg (range 0.3-50 mg/kg), p<0.001, read-out: maximum inhibition of production of active NE compared with LPS control)?
**A.** Its inhibition at 30 mg/kg is 76%.

**Q.** What about the inhibition at 0.5 mg/kg ([2]; Mus musculus, Neutrophil, po, 264 h, 0.5 mg/kg once daily oral, read-out: inhibition of production of active NE compared with vehicle/LPS control) of the same molecule?
**A.** Its inhibition at 0.5 mg/kg is 19%.

**Q.** What about the inhibition at 5 mg/kg ([2]; Mus musculus, Neutrophil, po, 264 h, 5 mg/kg once daily oral, read-out: inhibition of production of active NE compared with vehicle/LPS control) of the same molecule?
**A.** Its inhibition at 5 mg/kg is 75%.

**Q.** What about the ED50 ([2]; Neutrophil, 264 h, once daily oral, read-out: ED50 for NE inhibition) of the same molecule?
**A.** The ED50 was 1.4 mg/kg.

**Q.** And the IC50 [3]?
**A.** The IC50 was 64 nM.

**Q.** What about the concentration at 5 h ([4]; bone marrow, 0.1 mg/kg, 5 h after final dose on Day 12, read-out: exposure in bone marrow, mean (SEM)) of the same molecule?
**A.** The concentration at 5 h was 143 nM.

**Q.** And the concentration at 5 h ([4]; bone marrow, 0.5 mg/kg, 5 h after final dose on Day 12, read-out: exposure in bone marrow, mean (SEM))?
**A.** Its concentration at 5 h is 321 nM.

**Q.** And the concentration at 5 h ([4]; bone marrow, 5 mg/kg, 5 h after final dose on Day 12, read-out: exposure in bone marrow, mean (SEM))?
**A.** The concentration at 5 h was 1690 nM.

**Q.** And the Kp at 5 h ([4]; 0.1 mg/kg, 0.1 mg/kg)?
**A.** The Kp at 5 h was 24.

**Q.** And the Kp at 5 h ([4]; 0.5 mg/kg, 0.5 mg/kg)?
**A.** The Kp at 5 h was 8.

**Q.** And the Kp at 5 h ([4]; 5 mg/kg, 5 mg/kg)?
**A.** The Kp at 5 h was 2.

**Q.** And the concentration at 5 h ([4]; plasma, 0.1 mg/kg, 5 h after final dose on Day 12, read-out: exposure in plasma, mean (SEM))?
**A.** The concentration at 5 h was 6 nM.

**Q.** What about the concentration at 5 h ([4]; plasma, 0.5 mg/kg, 5 h after final dose on Day 12, read-out: exposure in plasma, mean (SEM)) of the same molecule?
**A.** Its concentration at 5 h is 40 nM.

**Q.** What about the concentration at 5 h ([4]; plasma, 5 mg/kg, 5 h after final dose on Day 12, read-out: exposure in plasma, mean (SEM)) of the same molecule?
**A.** The concentration at 5 h was 710 nM.

**Q.** Which results are given for `Cn1c(=O)oc2ccc(-c3ccc(C[C@@H](C#N)NC(=O)[C@@H]4CNCCCO4)cc3)cc21` [brensocatib]?
**A.** annualised rates of exacerbations and number of severe exacerbations compared with placebo [5]: lower; incidence of hyperkeratosis compared with the placebo group [5]: higher; risk of exacerbation over the treatment period compared with placebo [5]: lower; time to first exacerbation compared with placebo [5]: significantly increased; NE activity (healthy volunteers): Exposure-related reduction; safety profile (healthy volunteers): generally well-tolerated; skin findings (healthy volunteers): several dose-dependent, possibly CatC-related non-serious skin findings (exfoliation and hyperkeratosis)
